Results as given in patent EP3722296B1, “DIHYDRONAPHTHYRIDINES AND RELATED COMPOUNDS USEFUL AS KINASE INHIBITORS FOR THE TREATMENT OF PROLIFERATIVE DISEASES” (Deciphera Pharmaceuticals, LLC, priority 2012, dated 2013).

What was measured:
GIST T1 cells = assay: GIST T1 Cell Proliferation Assay; assay type: cell-based; details: Homo sapiens, GISTT1, 72 h, 68 hours + 4 hours resazurin
Protocol: (§1) GIST48, GIST430, and GIST882 cells were obtained from J. Fletcher (Brigham and Women's Hospital, Boston, MA). GIST T1 cells were obtained from B. Rubin (Cleveland Clinic, Cleveland, OH) and Professor Takahiro Taguchi (Kochi Medical School, Nankoku, Kochi, Japan). Briefly, GIST48 and GIST 882 cells were grown in RPMI 1640 medium supplemented with 15% characterized fetal bovine serum (Invitrogen, Carlsbad, CA), 1 unit/mL penicillin G, 1 µg/ml streptomycin, and 0.29 mg/mL L-glutamine at 37 °C, 5% CO2, and 95% humidity. GIST430 cells were grown in Ham's F10 medium supplemented with 15% characterized fetal bovine serum (Invitrogen, Carlsbad, CA), 30 mg/L bovine pituitary extract (BD Biosciences, San Jose, CA), 0.5% Mito+ serum extender (BD Biosciences, San Jose, CA), 1 unit/mL penicillin G, 1 µg/ml streptomycin, and 0.29 mg/mL L-glutamine at 37 °C, 5%CO2, 95% humidity. GIST T1 cells were grown in DMEM medium supplemented with 10% characterized fetal bovine serum (Invitrogen, Carlsbad, CA), 1 unit/mL penicillin G, 1 µg/ml streptomycin, and 0.29 mg/mL L-glutamine at 37 °C, 5% CO2, and 95% humidity.
A serial dilution of test compound was dispensed into a 384-well black clear bottom plate (Corning, Corning, NY). One thousand two-hundred fifty cells were added per well in 50 µL complete growth medium. Plates were incubated for 68 hours at 37 °C, 5% CO2, 95% humidity. At the end of the incubation period 10 µL of a 440 µM solution of resazurin (Sigma, St. Louis, MO) in PBS was added to each well and incubated for an additional 4 hours at 37 °C, 5% CO2, 95% humidity. Plates were read on a Synergy2 reader (Biotek, Winooski, VT) using an excitation of 540 nm and an emission of 600 nm.

c-KIT kinase = c-KIT kinase (Homo sapiens, UniProt P10721); assay: c-KIT kinase Assay; assay type: biochemical; parameters: cKIT residues T544-V976; GST (N); TEV cleavage site (internal); purchased deCODE Biostructures; details: enzymatic assay, ATP 200 µM; read-out: KIT (wt) IC50
Sequence of c-KIT kinase (P10721 544-976): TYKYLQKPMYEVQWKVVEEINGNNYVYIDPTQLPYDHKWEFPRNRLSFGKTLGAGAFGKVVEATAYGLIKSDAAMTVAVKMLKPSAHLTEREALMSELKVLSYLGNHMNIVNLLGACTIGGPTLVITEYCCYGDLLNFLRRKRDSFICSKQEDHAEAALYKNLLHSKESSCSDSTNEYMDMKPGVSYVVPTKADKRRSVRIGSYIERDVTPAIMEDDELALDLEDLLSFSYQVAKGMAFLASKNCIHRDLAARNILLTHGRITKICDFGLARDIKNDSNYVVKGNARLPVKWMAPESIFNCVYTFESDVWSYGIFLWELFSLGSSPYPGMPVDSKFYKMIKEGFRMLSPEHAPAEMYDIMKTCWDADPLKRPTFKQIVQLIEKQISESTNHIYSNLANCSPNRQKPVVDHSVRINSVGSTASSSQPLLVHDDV
Protocol: In this assay, the oxidation of NADH (measured by decrease in absorbance at 340 nm) was continuously monitored spectrophotometrically. […] The absorption at 340 nm was monitored continuously for 2 hours at 30 °C on Synergy 2 (BioTeK). The reaction rate was calculated using the 0 to 1 h time frame. Percent inhibition was obtained by comparison of reaction rate with that of a control (i.e. with no test compound). IC50 values were calculated from a series of percent inhibition values determined at a range of inhibitor concentrations using software routines as implemented in the GraphPad Prism software package. The protein construct was prepared by deCODE Biostructures using procedures known in the art. The construct contains […] of cKit, an N-terminal tag, a GST-fusion sequence and a TEV cleavage site. [formula]

c-KIT D816V kinase = target: T1, c-KIT D816V kinase (Homo sapiens, UniProt P10721, D816V); assay: c-KIT D816V kinase Assay; assay type: biochemical; details: enzymatic assay, ATP 200 uM
T1 construct: residues T544-V976 with N-terminal GST fusion; purchased deCODE Biostructures
T1 sequence (P10721 544-976 D816V): as the sequence (P10721 544-976) above, with D273V counted along it
Protocol: (§2) In this assay, the oxidation of NADH (measured by decrease in absorbance at 340 nm) was continuously monitored spectrophotometrically. […] The inhibition reaction was started by mixing serial diluted test compound with the above reaction mixture. The absorption at 340 nm was monitored continuously for 5 hours at 30 °C on Synergy 2 plate reader (BioTech).
(§3) The protein construct was prepared by deCODE Biostructures using procedures known in the art. The construct contains residues T544-V976 of cKit, an N-terminal tag, a GST-fusion sequence and a TEV cleavage site. This construct is identical to Seq ID no.

c-KIT T670I kinase = target: T2, c-KIT T670I kinase (Homo sapiens, UniProt P10721, T670I); assay: c-KIT T670I kinase assay; assay type: biochemical; details: enzymatic assay
T2 construct: The construct contains residues T544-V976 of cKit; GST (N); TEV cleavage site (internal); purchased deCODE Biostructures
T2 sequence (P10721 544-976 T670I): as the sequence (P10721 544-976) above, with T127I counted along it
Protocol: (§4) In this assay, the oxidation of NADH (measured by decrease in absorbance at 340 nm) was continuously monitored spectrophotometrically. […] The inhibition reaction was started by mixing serial diluted test compound with the above reaction mixture. The absorption at 340 nm was monitored continuously for 5 hours at 30 °C on Synergy 2 plate reader (BioTech). […] The protein construct was prepared by deCODE Biostructures using procedures known in the art. The construct contains […] of cKit, an N-terminal tag, a GST-fusion sequence and a TEV cleavage site. This construct is identical to Seq ID no. 1 except for the T670I mutation. [formula] [formula]

c-KIT D816H kinase = target: T3, c-KIT D816H kinase (Homo sapiens, UniProt P10721, D816H); assay: c-KIT D816H Kinase Assay; assay type: biochemical; details: enzymatic assay, ATP 200 µM
T3 construct: The construct contains residues T544-V976 of cKit; GST (N); TEV cleavage site (internal); purchased deCODE Biostructures
T3 sequence (P10721 544-976 D816H): as the sequence (P10721 544-976) above, with D273H counted along it
Protocol: as §4, with “6” for “5”, “no.” for “no. 1 except for the T670I mutation. [formula] [formula]”

c-KIT V654A kinase = target: T4, c-KIT V654A kinase (Homo sapiens, UniProt P10721, V654A); assay: c-KIT V654A Kinase Assay; assay type: biochemical; details: enzymatic assay, ATP 200 µM
T4 construct: residues T544-V976 with N-terminal GST fusion; purchased deCODE Biostructures
T4 sequence (P10721 544-976 V654A): as the sequence (P10721 544-976) above, with V111A counted along it
Protocol: as §2, with “6” for “5”
as §3

Phospho-KIT (Tyr719) = assay: GIST48 KIT Western Blot; assay type: cell-based; details: GIST48 cells, 4 hours, serum-free medium; read-out: pKIT suppression by western blot analysi GIST48
Protocol: as §1, with “Briefly, GIST48 and GIST 882 cells were grown in RPMI 1640 medium supplemented with 15% characterized fetal bovine serum (Invitrogen, Carlsbad, CA), 1 unit/mL penicillin G, 1 µg/ml streptomycin, and 0.29 mg/mL L-glutamine at 37 °C, 5% CO2, and 95% humidity.” left out
Two hundred fifty thousand cells were added per well in a 24-well tissue-culture treated plate. […] Medium was aspirated, cells were washed with PBS, and serum-free RPMI1640 medium was added. […] Cells were washed with PBS, then lysed. Cell lysates were separated by SDS-PAGE and transferred to PVDF. Phospho-KIT (Tyr719) was detected using an antibody from Cell Signaling Technology (Beverly, MA), ECL Plus detection reagent (GE Healthcare, Piscataway, NJ) and a Molecular Devices Storm 840 phosphorimager in fluorescence mode. Blots were stripped and probed for total KIT using an antibody from Santa Cruz Biotech (Santa Cruz, CA). IC50 values were calculated using Prism software (Graphpad, San Diego, CA).

| Structure (SMILES) | IC50 (GIST T1 cells) [µM] | IC50 (c-KIT kinase) [µM] | IC50 (c-KIT D816V kinase) [µM] | IC50 (c-KIT T670I kinase) [µM] | IC50 (c-KIT D816H kinase) [µM] | IC50 (c-KIT V654A kinase) [µM] | IC50 (Phospho-KIT (Tyr719)) [µM] |
| --- | --- | --- | --- | --- | --- | --- | --- |
| CCn1c(=O)c(-c2cc(NC(=O)Nc3ccc(F)c(CN4CCOCC4)c3)c(F)cc2Cl)cc2cnc(NC)cc21 [Example 95, 1-(4-chloro-5-(1-ethyl-7-(methylamino)-2-oxo-1,2-dihydro-1,6-naphthyridin-3-yl)-2-fluorophenyl)-3-(4-fluoro-3-(morpholinomethyl)phenyl)urea] | < 0.01 | < 0.01 | 0.1 to 1 | 0.01 to 0.1 | – | – | – |
| CCn1c(=O)c(-c2cc(NC(=O)Nc3ccc(F)c(CN4CCOCC4)c3)c(F)cc2Cl)cc2cnc(NC=O)cc21 [Example 107, N-(3-(2-chloro-4-fluoro-5-(3-(4-fluoro-3-(morpholinomethyl)phenyl)ureido)phenyl)-1-ethyl-2-oxo-1,2-dihydro-1,6-naphthyridin-7-yl)formamide] | 0.01 to 0.1 | – | – | – | – | – | – |
| CC(=O)Nc1cc2c(cn1)cc(-c1cc(NC(=O)Nc3cccc(F)c3)c(F)cc1Cl)c(=O)n2C(C)C [Example 99, N-(3-(2-chloro-4-fluoro-5-(3-(3-fluorophenyl)ureido)phenyl)-1-isopropyl-2-oxo-1,2-dihydro-1,6-naphthyridin-7-yl)acetamide] | < 0.01 | – | – | – | – | – | – |
| CCn1c(=O)c(-c2cc(NC(=O)Nc3ccccc3)c(F)cc2C)cc2cnc(NC(=O)N3CCC3)cc21 [Example 110, N-(1-ethyl-3-(4-fluoro-2-methyl-5-(3-phenylureido)phenyl)-2-oxo-1,2-dihydro-1,6-naphthyridin-7-yl)azetidine-1-carboxamide] | – | 0.01 to 0.1 | 0.01 to 0.1 | 0.01 to 0.1 | 0.01 to 0.1 | 0.01 to 0.1 | < 0.01 |
| CCn1c(=O)c(-c2cc(NC(=O)Nc3ccccc3F)c(F)cc2Cl)cc2cnc(NCCOC)cc21 [Example 35, 1-(4-chloro-5-(1-ethyl-7-(2-methoxyethylamino)-2-oxo-1,2-dihydro-1,6-naphthyridin-3-yl)-2-fluorophenyl)-3-(2-fluorophenyl)urea] | – | < 0.01 | 0.01 to 0.1 | 0.1 to 1 | 0.01 to 0.1 | 0.01 to 0.1 | – |
| CCn1c(=O)c(-c2cc(NC(=O)Nc3ccc(F)c(CN4CCCC4)c3)c(F)cc2Cl)cc2cnc(NC)cc21 [Example 97, 1-(4-chloro-5-(1-ethyl-7-(methylamino)-2-oxo-1,2-dihydro-1,6-naphthyridin-3-yl)-2-fluorophenyl)-3-(4-fluoro-3-(pyrrolidin-1-ylmethyl)phenyl)urea] | < 0.01 | – | – | – | – | – | – |
| CCn1c(=O)c(-c2cc(NC(=O)Nc3ccccc3)c(F)cc2C)cc2cnc(NCCOC)cc21 [Example 37, 1-(5-(1-ethyl-7-(2-methoxyethylamino)-2-oxo-1,2-dihydro-1,6-naphthyridin-3-yl)-2-fluoro-4-methylphenyl)-3-phenylurea] | – | < 0.01 | 0.01 to 0.1 | 0.1 to 1 | 0.01 to 0.1 | 0.01 to 0.1 | – |
| CCn1c(=O)c(-c2cc(NC(=O)Nc3ccc(F)c(CN4CCN(C)CC4)c3)c(F)cc2C)cc2cnc(NC)cc21 [Example 89, 1-(5-(1-ethyl-7-(methylamino)-2-oxo-1,2-dihydro-1,6-naphthyridin-3-yl)-2-fluoro-4-methylphenyl)-3-(4-fluoro-3-((4-methylpiperazin-1-yl)methyl)phenyl)urea] | – | 0.01 to 0.1 | 0.1 to 1 | 0.01 to 0.1 | 0.01 to 0.1 | 0.1 to 1 | – |
| CCn1c(=O)c(-c2cc(NC(=O)Nc3cccc(C#N)c3)c(F)cc2Cl)cc2cnc(NC)cc21 [Example 91, 1-(4-chloro-5-(1-ethyl-7-(methylamino)-2-oxo-1,2-dihydro-1,6-naphthyridin-3-yl)-2-fluorophenyl)-3-(3-cyanophenyl)urea] | – | < 0.01 | 0.01 to 0.1 | 0.01 to 0.1 | 0.01 to 0.1 | 0.01 to 0.1 | – |
| Cc1cc(F)c(NC(=O)Nc2ccccc2)cc1-c1cc2cnc(NC(=O)N3CCC3)cc2n(C(C)C)c1=O [Example 109, N-(3-(4-fluoro-2-methyl-5-(3-phenylureido)phenyl)-1-isopropyl-2-oxo-1,2-dihydro-1,6-naphthyridin-7-yl)azetidine-1-carboxamide] | – | – | – | – | – | – | 0.01 to 0.1 |
| CCn1c(=O)c(-c2cc(NC(=O)Nc3ccc(F)cc3)c(F)cc2Cl)cc2cnc(NCCOC)cc21 [Example 34, 1-(4-chloro-5-(1-ethyl-7-(2-methoxyethylamino)-2-oxo-1,2-dihydro-1,6-naphthyridin-3-yl)-2-fluorophenyl)-3-(4-fluorophenyl)urea] | – | < 0.01 | 0.01 to 0.1 | 0.01 to 0.1 | 0.01 to 0.1 | 0.01 to 0.1 | – |
